As a reminder, the IC50 is the midpoint of a concentration-inhibition curve. Broadly, the inhibition is the relative decrease from the control value, in per cent. By Kd is commonly meant the concentration at which binding is half-saturated.

In one test the target is T1, full-length human RORγt (Homo sapiens, UniProt P51449).
T1 construct: expressed in transfected cells; host or cells: HEK293T, transiently transfected with pCMV-BD-ROR
T1 sequence (P51449 1-497 isoform P51449-2): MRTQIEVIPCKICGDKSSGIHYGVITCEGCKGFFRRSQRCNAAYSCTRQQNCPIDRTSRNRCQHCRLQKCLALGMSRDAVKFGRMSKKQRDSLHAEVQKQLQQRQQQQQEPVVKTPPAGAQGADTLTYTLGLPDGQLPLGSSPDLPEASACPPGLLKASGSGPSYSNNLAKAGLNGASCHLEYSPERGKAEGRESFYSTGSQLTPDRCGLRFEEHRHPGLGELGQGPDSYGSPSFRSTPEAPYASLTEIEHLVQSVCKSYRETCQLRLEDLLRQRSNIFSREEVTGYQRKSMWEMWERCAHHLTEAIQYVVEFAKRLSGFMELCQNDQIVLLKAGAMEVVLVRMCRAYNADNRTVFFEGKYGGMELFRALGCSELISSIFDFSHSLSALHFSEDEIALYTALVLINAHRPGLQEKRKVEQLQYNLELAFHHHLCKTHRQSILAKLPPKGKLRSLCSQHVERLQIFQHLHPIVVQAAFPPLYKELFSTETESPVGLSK
Kind of test: RORγt (full-length human) Reporter Assay, Conditions A. The class given is cell-based. To be noted: for IC50: HEK293T cells, GAL4-DBD-RORγt, luciferase, read-out: RORγt (FL) Reporter Assay A, IC50; for inhibition at 6 µM: read-out: RORγt (FL) Reporter Assay A, % inhibition @ 6 μM, 6 μM compound; for inhibition at 2 µM: read-out: RORγt (FL) Reporter Assay A, % inhibition (* at 2 μM), 2 μM compound concentration (footnote *). As to the method:
After overnight (16 to 20 hours) incubation, media were removed and cells were lysed with 20 μL 1× Passive Lysis Buffer (Promega) for 10-15 minutes. Luminescence was measured using a BMG LUMIstar OPTIMA plate reader, after addition of 75 μL/well firefly luciferase buffer, followed by 75 μL/well Renilla luciferase buffer. To calculate the effect of compounds on RORγt activity, firefly values were normalized against values of DMSO only and values of reference compound at saturating concentration, then further normalized against Renilla signals. IC50s were generated by plotting final Renilla normalized data against compound concentration and percent inhibition was calculated against DMSO control.

Test [1] addresses T2, human RORγt ligand binding domain (RORγt LBD) (Homo sapiens, UniProt P51449).
T2 construct: His-tag (N); TurboTEV protease cleavage site (ENLYFQG) (N); made in house; host or cells: E. coli (pHIS1, a modified pET expression vector)
T2 sequence (P51449 with tags, fused parts or gaps): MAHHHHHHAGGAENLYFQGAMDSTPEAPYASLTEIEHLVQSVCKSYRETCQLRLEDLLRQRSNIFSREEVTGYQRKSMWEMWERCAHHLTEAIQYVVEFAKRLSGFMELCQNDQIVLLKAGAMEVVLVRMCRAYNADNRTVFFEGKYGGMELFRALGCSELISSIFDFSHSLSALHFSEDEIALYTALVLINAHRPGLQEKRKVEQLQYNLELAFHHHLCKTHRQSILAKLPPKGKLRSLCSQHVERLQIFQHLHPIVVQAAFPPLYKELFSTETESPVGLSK
As to the kind of experiment: RORγt ThermoFluor assay. The settings on record: estimated from thermal shift concentration response. As to the method: This approach is applicable to a wide variety of systems, and rigorous in theoretical interpretation through quantitation of equilibrium binding constants (KD).
The shift in the melting point described as a ΔTm is proportional to the concentration and affinity of the ligand.
Protein and compound solutions are dispensed into black 384-well polypropylene PCR microplates (Abgene) and overlayed with silicone oil (1 μL, Fluka, type DC 200) to prevent evaporation.
Bar-coded assay plates are robotically loaded onto a thermostatically controlled PCR-type thermal block and then heated at a typical ramp-rate of 1° C./min for all experiments.
Fluorescence was measured by continuous illumination with UV light (Hamamatsu LC6) supplied via fiber optic and filtered through a band-pass filter (380-400 nm; >6 OD cutoff). Fluorescence emission of the entire 384-well plate was detected by measuring light intensity using a CCD camera (Sensys, Roper Scientific) filtered to detect 500±25 nm, resulting in simultaneous and independent readings of all 384 wells. Images were collected at each temperature, and the sum of the pixel intensity in a given area of the assay plate was recorded versus temperature. Reference wells contained RORγt without compounds, and the assay conditions were as follows: • 0.065 mg/mL RORγt • 60 μM 1,8-ANS • 100 mM Hepes, pH 7.0 • 10 mM NaCl • 2.5 mM GSH • 0.002% Tween-20
Project compounds were arranged in a pre-dosed mother plate (Greiner Bio-one) wherein compounds are serially diluted in 100% DMSO by 1:2 from a high concentration of 10 mM over 12 columns within a series (column 12 is a reference well containing DMSO, no compound). The compounds were robotically dispensed directly into assay plates (1×=46 nL) using a Hummingbird capillary liquid handling instrument (Digilab). Following compound dispense, protein and dye in buffer was added to achieve the final assay volume of 3 μL, followed by 1 μL of silicone oil.

As to `C[C@H](NS(=O)(=O)c1ccc(-c2sc(-c3noc(C(C)(C)O)n3)nc2C(=O)N2CCC(F)(F)CC2)c(C(F)F)c1F)C(F)(F)F` [Example 11/2, (S)-3-(Difluoromethyl)-4-(4-(4,4-difluoropiperidine-1-carbonyl)-2-(5-(2-hydroxypropan-2-yl)-1,2,4-oxadiazol-3-yl)thiazol-5-yl)-2-fluoro-N-(1,1,1-trifluoropropan-2-yl)benzenesulfonamide], on full-length human RORγt, the IC50 was found to be 46 nM and the inhibition at 6 µM amounted to 108%. Moreover, the Kd in test [1] was 12 nM.
The like results for `CCCN(CC)C(=O)c1nc(-c2nnc(C(C)(C)O)o2)sc1-c1ccc(S(=O)(=O)N[C@@H](C)C(F)(F)F)c(Cl)c1Cl` [Example 6/8, (S)-5-(2,3-Dichloro-4-(N-(1,1,1-trifluoropropan-2-yl)sulfamoyl)phenyl)-N-ethyl-2-(5-(2-hydroxypropan-2-yl)-1,3,4-oxadiazol-2-yl)-N-propylthiazole-4-carboxamide] were, in that order, 30 nM, 108% and 4.5 nM.
As for `CC[C@H](NS(=O)(=O)c1ccc(-c2sc(-c3noc(CC(C)(C)O)n3)nc2C(=O)N2CCC(F)(F)C2)c(C(F)F)c1F)C(F)(F)F` [Example 12/1, (S)-3-(Difluoromethyl)-4-(4-(3,3-difluoropyrrolidine-1-carbonyl)-2-(5-(2-hydroxy-2-methylpropyl)-1,2,4-oxadiazol-3-yl)thiazol-5-yl)-2-fluoro-N-(1,1,1-trifluorobutan-2-yl)benzenesulfonamide], at full-length human RORγt, the IC50 was found to be 120 nM and the inhibition at 6 µM was 102%. In addition, the Kd in test [1] was 30 nM.
In the case of `Cc1c(S(=O)(=O)N[C@@H](C)C(F)(F)F)ccc(-c2sc(-c3nnc(C(C)(C)O)o3)nc2C(=O)N2CCC(F)(F)CC2)c1F` [Example 26, 4-(4-(4,4-Difluoropiperidine-1-carbonyl)-2-(5-(2-hydroxypropan-2-yl)-1,3,4-oxadiazol-2-yl)thiazol-5-yl)-3-fluoro-2-methyl-N—((S)-1,1,1-trifluoropropan-2-yl)benzenesulfonamide], at full-length human RORγt, the IC50 came out at 86 nM and the inhibition at 6 µM stood at 107%. Moreover, the Kd in test [1] is 5 nM.
Take `Cc1cc(C(O)(C(F)(F)F)C(F)(F)F)ccc1-c1sc(-c2noc(C(C)(C)O)n2)nc1C(=O)N1CCC[C@@H]1C` [Example 32, (S)-(5-(4-(1,1,1,3,3,3-hexafluoro-2-hydroxypropan-2-yl)-2-methylphenyl)-2-(5-(2-hydroxypropan-2-yl)-1,2,4-oxadiazol-3-yl)thiazol-4-yl)(2-methylpyrrolidin-1-yl)methanone]: in test [1], the Kd is 27 nM.
Consider `CCN(CC)C(=O)c1nc(-c2nnc(C)o2)sc1-c1ccc(S(=O)(=O)N[C@@H](C)C(F)(F)F)c(Cl)c1Cl` [Example 7, (S)-5-(2,3-Dichloro-4-(N-(1,1,1-trifluoropropan-2-yl)sulfamoyl)phenyl)-N,N-diethyl-2-(5-methyl-1,3,4-oxadiazol-2-yl)thiazole-4-carboxamide], for which, on full-length human RORγt, the IC50 was 120 nM and the inhibition at 6 µM turned out to be 102%. Besides, the Kd in test [1] was 290 nM.
As to `C[C@H](NS(=O)(=O)c1ccc(-c2sc(-c3cc(C(C)(C)O)on3)nc2C(=O)N2CCC(F)CC2)c(Cl)c1Cl)C(F)(F)F` [Example 13/1, (S)-2,3-Dichloro-4-(4-(4-fluoropiperidine-1-carbonyl)-2-(5-(2-hydroxypropan-2-yl)isoxazol-3-yl)thiazol-5-yl)-N-(1,1,1-trifluoropropan-2-yl)benzenesulfonamide], at full-length human RORγt, the IC50 stood at 21 nM and the inhibition at 2 µM amounted to 101%. For the same molecule, the Kd in test [1] was 4.9 nM.
Regarding `CC(C)(O)c1nnc(-c2nc(C(=O)N3CCC(F)(F)CC3)c(-c3ccc(C(O)(C(F)(F)F)C(F)(F)F)cc3C(F)F)s2)o1` [Example 28, (5-(2-(difluoromethyl)-4-(1,1,1,3,3,3-hexafluoro-2-hydroxypropan-2-yl)phenyl)-2-(5-(2-hydroxypropan-2-yl)-1,3,4-oxadiazol-2-yl)thiazol-4-yl)(4,4-difluoropiperidin-1-yl)methanone], the Kd in test [1] is 5.5 nM.
Turning to `CC[C@H](NS(=O)(=O)c1ccc(-c2sc(-c3nnc(C(C)(C)O)o3)nc2C(=O)N2CCC(F)CC2)c(Cl)c1Cl)C(F)(F)F` [Example 6/1, (S)-2,3-Dichloro-4-(4-(4-fluoropiperidine-1-carbonyl)-2-(5-(2-hydroxypropan-2-yl)-1,3,4-oxadiazol-2-yl)thiazol-5-yl)-N-(1,1,1-trifluorobutan-2-yl)benzenesulfonamide], the inhibition at 2 µM on full-length human RORγt came out at 102%.
Take `C[C@H]1CCCN1C(=O)c1nc(-c2noc(C(C)(C)O)n2)sc1-c1ccc(C(O)(C(F)(F)F)C(F)(F)F)cc1C(F)F` [Example 30, (S)-(5-(2-(difluoromethyl)-4-(1,1,1,3,3,3-hexafluoro-2-hydroxypropan-2-yl)phenyl)-2-(5-(2-hydroxypropan-2-yl)-1,2,4-oxadiazol-3-yl)thiazol-4-yl)(2-methylpyrrolidin-1-yl)methanone]: the Kd in test [1] was 22 nM.
On to `CC[C@H](NS(=O)(=O)c1ccc(-c2sc(-c3noc(CC(C)(C)C(=O)O)n3)nc2C(=O)N2CCCC[C@@H]2C)c(C(F)F)c1Cl)C(F)(F)F` [Example 10/4, 3-(3-(5-(3-Chloro-2-(difluoromethyl)-4-(N—((S)-1,1,1-trifluorobutan-2-yl)sulfamoyl)phenyl)-4-((S)-2-methylpiperidine-1-carbonyl)thiazol-2-yl)-1,2,4-oxadiazol-5-yl)-2,2-dimethylpropanoic acid], for which, at full-length human RORγt, the IC50 turned out to be 33 nM and the inhibition at 6 µM stood at 99%.
Turning to `C[C@H]1CCCN1C(=O)c1nc(-c2nnc(C(C)(C)O)o2)sc1-c1ccc(C(O)(C(F)(F)F)C(F)(F)F)cc1C(F)F` [Example 29, (S)-(5-(2-(difluoromethyl)-4-(1,1,1,3,3,3-hexafluoro-2-hydroxypropan-2-yl)phenyl)-2-(5-(2-hydroxypropan-2-yl)-1,3,4-oxadiazol-2-yl)thiazol-4-yl)(2-methylpyrrolidin-1-yl)methanone], the Kd in test [1] is 17 nM.
On to `Cc1cc(C(O)(C(F)(F)F)C(F)(F)F)ccc1-c1sc(-c2nnc(C(C)(C)O)o2)nc1C(=O)N1CCC[C@@H]1C` [Example 31, (S)-(5-(4-(1,1,1,3,3,3-hexafluoro-2-hydroxypropan-2-yl)-2-methylphenyl)-2-(5-(2-hydroxypropan-2-yl)-1,3,4-oxadiazol-2-yl)thiazol-4-yl)(2-methylpyrrolidin-1-yl)methanone], for which, in test [1], the Kd is 18 nM.
For the molecule `CC[C@H](NS(=O)(=O)c1ccc(-c2sc(-c3noc(CC(C)(C)C(=O)O)n3)nc2C(=O)N2CCCC[C@@H]2C)c(Cl)c1Cl)C(F)(F)F` [Example 10, 3-(3-(5-(2,3-Dichloro-4-(N—((S)-1,1,1-trifluorobutan-2-yl)sulfamoyl)phenyl)-4-((S)-2-methylpiperidine-1-carbonyl)thiazol-2-yl)-1,2,4-oxadiazol-5-yl)-2,2-dimethylpropanoic acid], on full-length human RORγt, the IC50 came to 9 nM and the inhibition at 6 µM turned out to be 104%.

The values are drawn from US9845319B2, “Amide substituted thiazoles as modulators of RORyt” (Janssen Pharmaceutica NV, priority 2014, dated 2017).
